± gives the expanded uncertainty stated by the source.
Test: mn = molality of the nth substance listed, in mol/kg
Conditions: 100 kPa, Liquid; for speed of sound: Frequency=3 MHz, Sing-around technique in a fixed-path interferometer; for mass density: Vibrating tube method

N[C@@H](CO)C(=O)O [L-serine] + O
Conditions | mass density, 305.15 K [kg/m3] | mass density, 310.15 K [kg/m3] | mass density, 315.15 K [kg/m3] | speed of sound, 305.15 K [m/s] | speed of sound, 310.15 K [m/s] | speed of sound, 315.15 K [m/s]
m1 = 0.1012 | 999.763 ± 1 | 997.637 ± 1 | 995.748 ± 1 | 1519.7 ± 1.6 | 1529.4 ± 1.6 | 1537.7 ± 1.6
m1 = 0.1997 | 1003.99 ± 1 | 1001.83 ± 1 | 999.945 ± 1 | 1525.5 ± 1.6 | 1535.1 ± 1.6 | 1543.3 ± 1.6
m1 = 0.3 | 1008.2 ± 1.1 | 1006.11 ± 1.1 | 1004.22 ± 1.1 | 1531.1 ± 1.6 | 1540.5 ± 1.6 | 1548.4 ± 1.6
m1 = 0.3986 | 1012.53 ± 1.1 | 1010.31 ± 1.1 | 1008.42 ± 1.1 | 1536.8 ± 1.7 | 1546.1 ± 1.7 | 1554 ± 1.7
m1 = 0.4987 | 1016.75 ± 1.1 | 1014.57 ± 1.1 | 1012.68 ± 1.1 | 1542.2 ± 1.7 | 1551.4 ± 1.7 | 1559.2 ± 1.7
m1 = 0.6008 | 1021.43 ± 1.2 | 1018.92 ± 1.2 | 1017.03 ± 1.1 | 1548 ± 1.8 | 1556.9 ± 1.8 | 1564.5 ± 1.7
m1 = 0.6973 | 1025.53 ± 1.2 | 1023.03 ± 1.2 | 1021.14 ± 1.2 | 1553.3 ± 1.8 | 1562.2 ± 1.8 | 1569.6 ± 1.8
m1 = 0.8 | 1029.74 ± 1.2 | 1027.41 ± 1.2 | 1025.52 ± 1.2 | 1558.8 ± 1.8 | 1567.6 ± 1.8 | 1575 ± 1.8
m1 = 0.9003 | 1033.96 ± 1.3 | 1031.68 ± 1.3 | 1029.79 ± 1.3 | 1564 ± 1.9 | 1572.7 ± 1.9 | 1579.9 ± 1.9
m1 = 0.9963 | 1037.97 ± 1.3 | 1035.77 ± 1.4 | 1033.88 ± 1.3 | 1569.2 ± 1.9 | 1577.7 ± 1.9 | 1584.9 ± 1.9

From the NIST ThermoML archive (doi:10.1016/j.jct.2015.11.020)
